In general, IC50 refers to the midpoint of a concentration-inhibition curve. Higher therefore signals a need for much substance.

The source of these data is publication PMC4893612 (Scientific Reports, 2016).

Common to all, as to type: cell-based
One assay has as its target USP14 (Homo sapiens, UniProt P54578). Nature of the assay: Cellular thermal shift assay (CETSA) in OPM-2 cells. Further details: endogenous in cells; host or cells: OPM-2 multiple myeloma cells. Particulars: 1 hour. As for the experimental part:
For CETSA, the same amount of cells as one sample was treated with required condition and collected as described. Each sample was suspended in PBS supplemented with protease inhibitors after they were washed in PBS. And then these samples were heated at 51, 53, or 55 °C for 3 min. Immediately after heating, tubes were removed and incubated at room temperature for 3 min, and then snap-frozen in liquid nitrogen. Samples were freeze-thawed twice and centrifuged at 20,000 g for 20 min at +4 °C and supernatants were analysed by Western-blotting.

Another assay deals with OPM-2. Nature of the assay: MTT antiproliferative assay, OPM-2. The conditions noted are these: Homo sapiens, 72 hours. Here is the method:
(§1) Cell viability was monitored by the MTT (3-(4,5-dimethylthiazol-2-yl)-2,5-diphenyltetrazolium bromide) assay. For the MTT assay, cells were suspended at 5 × 10^5 cells/ml, and 100 μl aliquots were dispended into 96-well microtiter plates and exposed to drugs as described using DMSO control. At the end of incubations, 10 μl of a stock solution of 5 mg/ml MTT (3-(4,5-dimethylthiazol-2-yl)-2,5-diphenyltetrazolium bromide), was added into each well, and the plates were incubated 4 hours at 37 °C. Formazan crystals were dissolved with 100 μl of 10% SDS/10 mM HCl solution overnight at 37 °C. Since MTT assays are affected by mitochondrial activity, and since OXPHOS is affected by VLX1570 (unpublished observation), we used the acid phosphatase method[49] to determine cell viability in some experiments. After washing twice with PBS, cells were lysed in 100 μl of 0.1 M sodium acetate, 0,1% Triton X-100, p-nitrophenylphosphate (Pierce Biotechnology Inc, Rockford, IL) and incubated for 90 min at 37 °C. At the end of the incubation, 10 μl NaOH was added to each well and A405 was determined.
A general note: Tetrazolium assays rely on reduction of a dye to a coloured formazan, in cell work by metabolically active cells.

A further assay relates to KMS-11. Nature of the assay: MTT antiproliferative assay, KMS-11. The conditions noted are these: Homo sapiens, 72 hours. Here is the method:
as §1

The next assay relates to OPM-2-BZ^R. Kind of assay: MTT antiproliferative assay, OPM-2-BZR. The conditions noted are these: Homo sapiens, OPM-2-BZ^R (bortezomib resistant), 72 hours. Here is the method:
as §1

The subject of a further assay is RPMI8226. Kind of assay: MTT antiproliferative assay, RPMI8226. Particulars: Homo sapiens, RPMI-8226, 72 hours. As for the experimental part: as §1

USP14, sequence (P54578 whole entry): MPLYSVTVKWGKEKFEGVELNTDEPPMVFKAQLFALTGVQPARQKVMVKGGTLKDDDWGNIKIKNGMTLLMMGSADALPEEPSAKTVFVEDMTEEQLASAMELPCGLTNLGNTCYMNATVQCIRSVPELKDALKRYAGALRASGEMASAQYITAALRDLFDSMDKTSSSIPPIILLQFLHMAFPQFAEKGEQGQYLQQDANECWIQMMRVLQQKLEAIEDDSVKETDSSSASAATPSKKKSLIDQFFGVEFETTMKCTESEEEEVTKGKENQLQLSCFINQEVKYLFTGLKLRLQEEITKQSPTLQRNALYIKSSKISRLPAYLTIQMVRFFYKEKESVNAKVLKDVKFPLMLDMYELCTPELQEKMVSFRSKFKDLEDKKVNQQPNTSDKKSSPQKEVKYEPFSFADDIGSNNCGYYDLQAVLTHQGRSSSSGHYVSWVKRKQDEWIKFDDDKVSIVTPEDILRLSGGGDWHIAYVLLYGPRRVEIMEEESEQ

Take `CCC[C@H](NC(=O)/C(C#N)=C/c1cccc(Br)n1)c1ccccc1` [WP1130, reference compound]: the “thermostabilization of USP14” value at USP14 (5 μM) was “induced thermostabilization”.
Take `CC(C)C[C@H](NC(=O)[C@H](Cc1ccccc1)NC(=O)c1cnccn1)B(O)O` [bortezomib]: the 50% inhibitory concentration (IC50) came out at 0.032 ± 0.001 µM in the assay on OPM-2, 0.067 ± 0.003 µM with KMS-11, 0.204 ± 0.01 µM in the assay on OPM-2-BZ^R and 0.084 ± 0.005 µM in the assay with RPMI8226.
Consider `C=CC(=O)N1C/C(=C\c2ccc([N+](=O)[O-])cc2)C(=O)/C(=C/c2ccc([N+](=O)[O-])cc2)C1` [b-AP15], for which the IC50 in the assay on OPM-2 worked out at 0.16 ± 0.003 µM; in the assay on KMS-11, 0.083 ± 0.003 µM; in the assay with OPM-2-BZ^R, 0.268 ± 0.012 µM; in the assay on RPMI8226, 0.15 ± 0.014 µM. For the same compound, the “thermostabilization of USP14” value on USP14 (1 μM) is reported as “induced thermostabilization”.
